Measurements published in patent publication US8188303B2, “Anti-malarial compound isolated from Gomphostema niveum” (The Director General, Defence Research and Development …, priority 2005, dated 2012).
Values after ≈ are worked out from the molar mass of the structure shown.

How the values were obtained:
P. falciparum = assay: In-vitro evaluation of anti-malarial activity (schizont maturation inhibition); format: cell-based, Plasmodium falciparum
Procedure: Two strains of chloroquine sensitive strain and one strain of P. falciparum isolated from patients from Jagadalpur region of India and maintained in vitro. The cultures are maintained as per the standard culture procedures.
The parasites are growth in O +ve human RBCs with the addition of RPMI 1640 culture media with 10% Human serum as supplement. The cells are incubated at 37° C. at 5% CO2 atmosphere and the parasitemia is checked after 24 hrs and media changed. When parasitemia exceeded 10% parasitized cells the culture is subcultured with the addition of fresh RBC. The parasite growth is synchronized by the sorbitol lysis method and synchronized ring stage parasites are used for testing. The in-vitro testing is done in 100 μI complete media per well with the addition of 10 μI of erythrocytes with 2% of ring stages of parasites. All the tests are run in duplicates with in 96 well flat bottomed tissue culture plate and double dilutions are made for each of the test compound with individual control wells only with the RPMI 1640 and human serum supplement. The growth of the parasites in the presence of each of the test compound, chloroquine and control wells are monitored by the examination of the giemsa stained blood smears made after 24 hrs of incubation. The counting is done for the presence of mature schizsonts among 200 asexual parasites and the average schizont maturation inhibition is calculated by the formula (1−Nt/Nc)×100 where in Nt and Nc represent the number of schizont present in the test and control respectively. The IC 50 and IC 90 values are calculated by using the commercial statistical package Sigmastat.
As controls IC50 chloroquine and artether were also determined.

P. berghi = assay: In-vivo anti-malarial activity; parameters: species or system Plasmodium berghi; settings: result in words
[1] = schizont maturation inhibition, synchronized ring stage parasites in human RBCs, 24 hrs incubation

Compound: CCN(CC)CCCC(C)Nc1ccnc2cc(Cl)ccc12 (stereo not drawn) [Chloroquine, reference compound]
- IC50 (P. falciparum; Plasmodium falciparum, 24 h): 12.9 µg/mL (≈ 40.2 µM)
- IC90 (P. falciparum; Plasmodium falciparum, 24 h): 23.7 µg/mL (≈ 74.1 µM)

Compound: CC1=CC(=O)CC2C1(C)CCC(CO)C2(C)CCC1=CCOC1=O (stereo not drawn) [Gomphostenin, 3-[2-(2-Hydroxymethyl-1,4a,5-trimethyl-7-oxo-1,2,3,4,4a,7 8,8a-octahydronaphthalen-1-yl)-ethyl]-5H-furan-2-one]
- inhibitory activity against P. falciparum in-vitro (P. falciparum; in-vitro, result in words): significant inhibitory activity
- IC50 (P. falciparum; [1]): 8.23 µg/mL (≈ 24.8 µM)
- IC90 (P. falciparum; [1]): 24.29 µg/mL (≈ 73.1 µM)
- inhibitory activity against P. berghi in-vivo (P. berghi): significant inhibitory activity
